Counter-ions that a name gives are not always drawn. Non-standard residues stand in square brackets, D forms with d. Residues, ends and D or L forms follow the SMILES beside them. Dap(6-DMN) = CN(C)c1ccc2cc3c(cc2c1)C(=O)N(C[C@H](N)C(=O)O)C3=O; pY = N[C@@H](Cc1ccc(OP(=O)(O)O)cc1)C(=O)O

The values that follow come from patent US7442529B2, “Fluorescent probes for biological studies” (Massachusetts Institute of Technology, priority 2005, dated 2008).

One data set has as its target GST-Crk SH2 (Homo sapiens, UniProt P46108). Kind of data set: Fluorescence titration of peptides with GST-Crk SH2, determination of Kd. Also on record: Human Crk SH2 domain was expressed as a GST fusion protein; made in house; host or cells: E. coli NB42. Type of data set: binding. How it is done:
(§1) The peptides of Table 1 were incubated with targeted and nontargeted SH2 domains. The binding of peptides Crk-bp, Crk-bp2, Abl-bp, and Abl-bp2 to SH2 target domains can be studied by fluorescence titration as shown in FIGS. 1-4.
(§2) Fluorescence titrations of Crk-bp and Crk-bp2 with targeted GST-Crk SH2 are shown in FIG. 1 (a) and (b), respectively. Fluorescence titrations of Crk-bp and Crk-bp2 with non-targeted GST-Abl SH2 are shown in FIG. 4 (a) and (b), respectively.
(§3) Peptide stock solutions of known concentration (determined by UV absorbance at 388 nm, E=7980 M−1 cm−1) were used to prepare 5 μM peptide concentration samples in buffered water (150 μL total volume, 100 mM NaCl, 10 mM sodium phosphate, pH 7.5). 2 μL aliquots of the corresponding stock protein solution (GST-Crk SH2, GST-Abl SH2 or GST-PI3K SH2, concentration determined by Bio-Rad Protein Assay) were consecutively added, and fluorescence emission spectra were recorded 1 minute after each addition ([…], 2 nm excitation and emission slit width). The increase in emission intensity at the maximum emission wavelength was plotted against total protein concentration and fitted by least-square analysis assuming a 1 to 1 binding mode to obtain the apparent Kd.
Human Crk SH2 domain was expressed as a GST fusion protein transformed into E. coli NB42 strain. Expression of SH2 domains was carried out following reported conditions. […]

For data set [1] the following is noted: in 0.1 M H2SO4; Melhuish 1961; cited from earlier work.
Data set [2] is described as follows: Photophysical properties: UV absorbance, fluorescence emission and quantum yield in different solvents. Type of data set: physicochemical. As to conditions: water; calculated using peptide Abl-bp; vs. quinine sulfate standard. How it is done: Quantum yields (Φ) were measured by comparison with a standard, which emits in a similar region to the test sample. From the available standard compounds quinine sulfate in 0.1 M H2SO4 (Φ=0.54) was selected.
UV absorbance at the excitation wavelength (375 nm), and fluorescence emission spectra of a series of solutions of the standard and compound were recorded. Solutions were prepared with different absorbances, ranging from 0 (solvent blank) to 0.1. A series of graphs of integrated fluorescence vs. absorbance were obtained. The data were fitted to a linear equation with gradient (grad), and intercept=0. See FIG. 5 as an example of the plots obtained.
The gradients of graphs in FIG. 5 are proportional to the quantum yield of the different samples. Absolute values were calculated using the standard sample, which has a fixed and known fluorescence quantum yield value, according to the following equation: […]
Where the subscripts std and x denote standard and test respectively. The value Φ is the fluorescence quantum yield, grad is the gradient (grad) from the plot of integrated fluorescence intensity vs. absorbance, and η the refractive index of the solvent.
The UV absorbance spectra (40 μM in methanol) and fluorescence emission spectra of compound (VIII), 6DMN-GlyOMe are shown in FIG. 6 and tabulated in Table 4. The UV spectrum of 6DMN-GlyOMe has an intense absorption band at 378 nm which is not found in unsubstituted 2,3-naphthalimides. The maximum excitation wavelength of 6DMN-GlyOMe is at 375 nm.
Quantum yields (Φ) were measured in the solvents listed in Table 2 by comparison with a standard, which emits in a similar region to 6DMN-GlyOMe. Quinine sulfate in 0.1 M H2SO4 (Φ=0.54) was used as the standard. (Melhuish, W. B. J. Phys. Chem., 1961, 65, 229-235). Solutions were prepared at different concentrations such that the absorbance measurements ranged between 0 and 0.1 at and above the excitation wavelength to avoid non-linear effects.
UV absorbance at the excitation wavelength (375 nm), and fluorescence emission spectra of a series of solutions of the standard and 6DMN-GlyOMe were recorded. A series of graphs of integrated fluorescence vs. absorbance were obtained. The data were fitted to a linear equation with gradient (grad), and intercept=0. The gradient (grad) is proportional to the quantum yield of the sample. Absolute values were calculated using the standard sample, which has a fixed and known fluorescence quantum yield value, according to the equation above.

A further data set addresses T1, GST-Abl SH2 (Homo sapiens, UniProt P00519).
T1 construct: The SH2 domain was cloned using BamH1 (5′) EcoR1 (3′) sites; made in house; host or cells: E. coli (plasmid received from elsewhere; strain not clearly stated for Abl)
T1 sequence (P00519 127-217 limits assumed): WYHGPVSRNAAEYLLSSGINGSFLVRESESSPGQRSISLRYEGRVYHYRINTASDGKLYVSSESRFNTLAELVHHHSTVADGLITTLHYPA
Kind of data set: Fluorescence titration of peptides with GST-Abl SH2, determination of Kd. The format is binding. On the procedure: as §1
Fluorescence titrations of Abl-bp with non-targeted GST-PI3K SH2 and […] are shown in FIG. 2 (b) and 4 (c), respectively. The relative fluorescence emission intensities for the Abl-bp peptide and aforementioned SH2 domain titrations are shown in FIG. 2 (c).
Fluorescence titrations Abl-bp2 with non-targeted GST-PI3K SH2 and GST-Crk SH2 are shown in FIGS. 3 (b) and 4 (d), respectively. The relative fluorescence emission intensities for the Abl-bp2 peptide and aforementioned SH2 domain titrations are shown in FIG. 3 (c).
as §3
Abl-SH2 was received as a GST fusion in a pGEX-KT vector, amp-resistant, IPTG-inducible. The SH2 domain was cloned using BamH1 (5′) EcoR1 (3′) sites.

A further data set relates to GST-PI3K SH2. Kind of data set: Fluorescence titration of peptides with GST-PI3K SH2 (non-target domain). The format is binding. Conditions: peptide saturated with GST-PI3K SH2, 565 nm (FIG. 1c). How it is done:
as §1, §2
Peptide stock solutions of known concentration (determined by UV absorbance at 388 nm, E=7980 M−1 cm−1) were used to prepare 5 μM peptide concentration samples in buffered water (150 μL total volume, 100 mM NaCl, 10 mM sodium phosphate, pH 7.5). 2 μL aliquots of the corresponding stock protein solution (GST-Crk SH2, GST-Abl SH2 or GST-PI3K SH2, concentration determined by Bio-Rad Protein Assay) were consecutively added, and fluorescence emission spectra were recorded 1 minute after each addition (excitation 395 nm, 2 nm excitation and emission slit width). […]
Src and PI3K SH2 domains were expressed and purified as GST fusion following reported procedures. […] Proteins were quantified using the Micro BCA protein Assay Kit (Pierce) relative to a BSA standard. All fusion proteins were analyzed by Coomasie staining and Western analysis with anti-GST antibodies.

Broadly, the Kd is the concentration at which binding is half-saturated. Read a high Kd as weaker binding. In turn, `CC[C@H](C)[C@H](NC(=O)[C@H](CC(N)=O)NC(=O)[C@@H]1CCCN1C(=O)[C@H](Cc1c[nH]cn1)NC(=O)[C@H](CC(=O)O)NC(=O)[C@H](Cc1ccc(OP(=O)(O)O)cc1)NC(=O)[C@H](CCC(N)=O)NC(=O)[C@H](CN1C(=O)c2cc3ccc(N(C)C)cc3cc2C1=O)NC(=O)[C@H](CCC(=O)O)NC(C)=O)C(N)=O` [Crk-bp, Ac-Glu-Dap(6DMN)-Gln-pTyr-Asp-His-Pro-Asn-Ile-(CONH2) (SEQ ID NO: 1)] (Ac-E[Dap(6-DMN)]Q[pY]DHPNI-NH2) showed a Kd on GST-Crk SH2 of 4.8 ± 2 µM. The Fluorescence increase on GST-Crk SH2 (target Crk SH2, excitation 375 nm, emission 565 nm) is 500%^b. For `C=C[C@H]1C[N@@]2CC[C@H]1C[C@H]2[C@H](O)c1ccnc2ccc(OC)cc12` [quinine sulfate], in data set [1], the “quantum yield (Φ) of the standard” value is on record as 0.54. With “Ac-Gly-Dap(6DMN)-Gln-pTyr-Glu-Asn-Val-Gln-Ser-(CONH2) (SEQ ID NO: 6) (Ac-G[Dap(6DMN)]Q[pY]ENVQS-NH2) [Abl-bp]”, the “quantum yield (Φ)” value in data set [2] is listed as 0.002. Besides, the Fluorescence increase with GST-Abl SH2 (target Abl SH2, excitation 375 nm, emission 599 nm) turned out to be 400%^c.

In the case of `CC[C@H](C)[C@H](NC(=O)[C@H](CC(N)=O)NC(=O)[C@@H]1CCCN1C(=O)[C@H](Cc1c[nH]cn1)NC(=O)[C@H](CC(=O)O)NC(=O)[C@H](Cc1ccc(OP(=O)(O)O)cc1)NC(=O)[C@H](CCC(N)=O)NC(=O)[C@H](CN1C(=O)c2cc3ccc(N(C)C)cc3cc2C1=O)NC(=O)CNC(C)=O)C(N)=O` [Crk-bp2, Ac-Gly-Dap(6DMN)-Gln-pTyr-Asp-His-Pro-Asn-Ile-(CONH2) (SEQ ID NO: 5)] (Ac-G[Dap(6-DMN)]Q[pY]DHPNI-NH2), the “relative fluorescence emission intensity with non-target SH2 domain compared with targeted GST-Crk SH2” value in the data set with GST-PI3K SH2 was “notably less”; on GST-Abl SH2 (peptide saturated with GST-Abl SH2, 565 nm (FIG. 1c)), “notably less”. Molecule “Ac-Dap(6DMN)-Gln-pTyr-Glu-Asn-Val-Gln-Ser-(CONH2) (SEQ OD NO: 7) [Abl-bp2]” yielded a Kd on GST-Abl SH2 (target Abl SH2, 20 μM in PBS buffer, pH 7.5) of 12 ± 2 µM.
